The assay deals with Beta Secretase enzyme (BACE) (Homo sapiens, UniProt P56817). As to the kind of experiment: In vitro enzymatic BACE FRET (fluorescence resonance energy transfer) assay. The format is biochemical. How it is done:
In Vitro Enzymatic Bace Fret (Fluorescence Resonance Energy Transfer) Assay (Enzyme Assay Data in the Example Table I)
The assay buffer used in this screen is 0.05 M acetate, pH 4.2, 10% DMSO final, 100 uM genapol (which is a nonionic detergent, below its Critical Micelle Concentration). […] This assay is effectively started by the addition of FRET substrate (50 nM) and the combination is incubated for one hour. The FRET assay is terminated with by addition of Tris buffer, which raises the pH to neutrality, and the fluorescence is determined. The FRET substrate is a peptide with commercially available fluorophore and quencher, on opposite sides of the BACE cleavage site.

[1] abbreviates: average IC50, enzyme assay, read-out: BACE 1 FRET assay.

Where two headings read alike, the source gives them in different places. Bounds are passed on as bounds.

Beta Secretase enzyme (BACE), sequence (P56817 46-501, species assumed): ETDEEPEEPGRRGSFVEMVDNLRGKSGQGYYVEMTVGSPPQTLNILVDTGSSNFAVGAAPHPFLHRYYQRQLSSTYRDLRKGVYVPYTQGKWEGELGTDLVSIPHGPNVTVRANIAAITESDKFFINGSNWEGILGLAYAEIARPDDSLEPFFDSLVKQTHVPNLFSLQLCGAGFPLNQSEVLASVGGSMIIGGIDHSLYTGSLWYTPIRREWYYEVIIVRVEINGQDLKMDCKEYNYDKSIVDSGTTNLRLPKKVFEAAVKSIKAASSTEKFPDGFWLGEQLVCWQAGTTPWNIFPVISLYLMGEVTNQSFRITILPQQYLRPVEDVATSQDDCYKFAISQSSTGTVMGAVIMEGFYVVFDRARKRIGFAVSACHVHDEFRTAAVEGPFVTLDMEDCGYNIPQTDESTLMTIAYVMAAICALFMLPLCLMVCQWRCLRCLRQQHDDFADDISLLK

With `NC1=N[C@@]2(CO1)c1cc(-c3cccnc3F)ccc1Oc1cnc(-c3cncs3)cc12` [Example 576, (5S)-7-(2-fluoro-3-pyridinyl)-3-(1,3-thiazol-5-yl)spiro[chromeno[2,3-c]pyridine-5,4′-[1,3]oxazol]-2′-amine], the IC50 under setting [1] was 0.0046 µM.
For `NC1=N[C@@]2(CS1)c1cc(-c3cccc(Cl)c3)ccc1Oc1cnc(Cl)cc12` [Example 593, (5S)-3-chloro-7-(3-chlorophenyl)spiro[chromeno[2,3-c]pyridine-5,4′-[1,3]thiazol]-2′-amine], under setting [1], the IC50 was determined as 0.0316 µM.
As for `NC1=N[C@]2(CS1)c1cc(-c3cccc(C4=CCOCC4)c3)ccc1Oc1cnc(C3=CCOCC3)cc12` [Example 596, (5R)-3-(3,6-dihydro-2H-pyran-4-yl)-7-(3-(3,6-dihydro-2H-pyran-4-yl)phenyl)spiro[chromeno[2,3-c]pyridine-5,4′-[1,3]thiazol]-2′-amine], the IC50 under setting [1] stood at 0.0478 µM.
As for `NC1=N[C@@]2(CO1)c1cc(-c3cncc(F)c3)ccc1Oc1c(F)cc([C@H]3CCOC3)cc12` [Example 296, (4S)-4′-fluoro-7′-(5-fluoro-3-pyridinyl)-2′-((3R)-tetrahydro-3-furanyl)spiro[1,3-oxazole-4,9′-xanthen]-2-amine], the IC50 under setting [1] turned out to be 0.0072 µM.
Same read-out and setting: under `NC1=N[C@@]2(CO1)c1cc(-c3cncc(F)c3)ccc1Oc1c(F)cc([C@@H]3CCOC3)cc12` [Example 297, (4S)-4′-fluoro-7′-(5-fluoro-3-pyridinyl)-2′-((3S)-tetrahydro-3-furanyl)spiro[1,3-oxazole-4,9′-xanthen]-2-amine] stands 0.0052 µM; under “(4S)-4′-fluoro-7′-(2-fluoro-3-pyridinyl)-2′-(2-oxa-6-azaspiro[3.4]oct-6-yl)spiro[1,3-oxazole-4,9′-xanthen]-2-amine [Example 857]”, less than 0.002 µM; under `NC1=N[C@@]2(CO1)c1cc(-c3cccnc3F)ccc1Oc1c(F)cc([C@H]3CCOC3)cc12` [Example 299, (4S)-4′-fluoro-7′-(2-fluoro-3-pyridinyl)-2′-((3R)-tetrahydro-3-furanyl)spiro[1,3-oxazole-4,9′-xanthen]-2-amine], 0.0028 µM.
Turning to `CC1(C#Cc2cnc3c(c2)[C@]2(CSC(N)=N2)c2cc(-c4cccnc4F)ccc2O3)COC1` [Example 586, (5S)-7-(2-fluoro-3-pyridinyl)-3-((3-methyl-3-oxetanyl)ethynyl)spiro[chromeno[2,3-b]pyridine-5,4′-[1,3]thiazol]-2′-amine], the IC50 under setting [1] worked out at 0.002 µM.
Take `NC1=N[C@@]2(CO1)c1cc(-c3c(F)ccnc3F)ccc1Oc1cnc(-c3ccncc3)cc12` [Example 398, (5S)-7-(2,4-difluoro-3-pyridinyl)-3-(4-pyridinyl)spiro[chromeno[2,3-c]pyridine-5,4′-[1,3]oxazol]-2′-amine]: under setting [1], the IC50 was determined as 0.002 µM.
Still for that read-out and setting: with “(4S)-4′-fluoro-7′-(2-fluoro-3-pyridinyl)-2′-(6-methoxy-3-pyridinyl)spiro[1,3-oxazole-4,9′-xanthen]-2-amine [Example 224]” the figure was 0.002 µM.
As to `NC1=N[C@@]2(CO1)c1cc(-c3cccnc3F)ccc1Oc1cnc(N3CCC(F)(F)CC3)cc12` [Example 137, (S)-3-(4,4-difluoropiperidin-1-yl)-7-(2-fluoropyridin-3-yl)-5′H-spiro[chromeno[2,3-c]pyridine-5,4′-oxazol]-2′-amine], the IC50 (BACE 1 FRET assay (uM)) was 0.0007 µM.
As for `CC(C)(C)C#Cc1cc2c(cn1)Oc1ccc(-c3c(F)ccnc3F)cc1[C@@]21COC(N)=N1` [Example 165, (5S)-7-(2,4-difluoro-3-pyridinyl)-3-(3,3-dimethyl-1-butyn-1-yl)spiro[chromeno[2,3-c]pyridine-5,4′-[1,3]oxazol]-2′-amine], under setting [1], the IC50 was 0.002 µM.
For `Cc1ncc(-c2cc3c(cn2)Oc2ccc(-c4cccnc4F)cc2[C@@]32COC(N)=N2)cn1` [Example 546, (5S)-7-(2-fluoro-3-pyridinyl)-3-(2-methyl-5-pyrimidinyl)spiro[chromeno[2,3-c]pyridine-5,4′-[1,3]oxazol]-2′-amine], the IC50 under setting [1] was found to be 0.0103 µM.
Consider `NC1=N[C@@]2(CO1)c1cc(-c3c(F)ccnc3F)ccc1Oc1c(F)cc(C3=CCOCC3)cc12` [Example 565, (4S)-7′-(2,4-difluoro-3-pyridinyl)-2′-(3,6-dihydro-2H-pyran-4-yl)-4′-fluoro spiro[1,3-oxazole-4,9′-xanthen]-2-amine], for which the IC50 under setting [1] was 0.002 µM.
The same measure, in the same setting: with `NC1=N[C@@]2(CS1)c1cc(-c3cncc(F)c3)ccc1Oc1cnc(Cl)cc12` [Example 595, (5S)-3-chloro-7-(5-fluoro-3-pyridinyl)spiro[chromeno[2,3-c]pyridine-5,4′-[1,3]thiazol]-2′-amine] the figure was 0.142 µM.
As for `NC1=N[C@@]2(CO1)c1cc(-c3cccnc3)ccc1Oc1c2cc(-c2ccnc(F)c2)nc1F` [Example 491, (5S)-1-fluoro-3-(2-fluoro-4-pyridinyl)-7-(3-pyridinyl)spiro[chromeno[2,3-c]pyridine-5,4′-[1,3]oxazol]-2′-amine], under setting [1], the IC50 amounted to 0.002 µM.
Turning to `NC1=N[C@@]2(CO1)c1cc(-c3ccc(F)cc3)ccc1Oc1cnc(C3CCOCC3)cc12` [Example 400, (5S)-7-(4-fluorophenyl)-3-(tetrahydro-2H-pyran-4-yl)spiro[chromeno[2,3-c]pyridine-5,4′-[1,3]oxazol]-2′-amine], the IC50 under setting [1] turned out to be 0.0709 µM.
Consider `NC1=N[C@@]2(CS1)c1cc(-c3cccnc3F)ccc1Oc1ncc(-c3cccnc3F)cc12` [Example 587, (5S)-3,7-bis (2-fluoro-3-pyridinyl)spiro[chromeno[2,3-b]pyridine-5,4′-[1,3]thiazol]-2′-amine], for which, under setting [1], the IC50 amounted to 0.002 µM.
Consider `NC1=N[C@@]2(CO1)c1cc(-c3cccnc3F)ccc1Oc1c2cc(-c2ccnc(F)c2)nc1F` [Example 152, (5S)-1-fluoro-7-(2-fluoro-3-pyridinyl)-3-(2-fluoro-4-pyridinyl)spiro[chromeno[2,3-c]pyridine-5,4′-[1,3]oxazol]-2′-amine], for which the IC50 under setting [1] amounted to 0.002 µM.
Regarding `NC1=N[C@@]2(CO1)c1cc(-c3ccnc(F)c3)ccc1Oc1cnc(-c3ccnc(F)c3)cc12` [Example 548, (5S)-3,7-bis(2-fluoro-4-pyridinyl)spiro[chromeno[2,3-c]pyridine-5,4′-[1,3]oxazol]-2′-amine], the IC50 under setting [1] was found to be 0.055 µM.
As for `NC1=N[C@@]2(CO1)c1cc(-c3cccnc3)c(F)cc1Oc1c(F)cc(C3=CCCOC3)cc12` [Example 298, (4S)-7′-(5,6-dihydro-2H-pyran-3-yl)-3′,5′-difluoro-2′-(3-pyridinyl)spiro[1,3-oxazole-4,9′-xanthen]-2-amine], under setting [1], the IC50 came to 0.0968 µM.
Consider `NC1=N[C@]2(CO1)c1cc(-c3cccc(Cl)c3)ccc1Oc1cnc(N3CCC(F)(F)C3)cc12` [Example 433, (5R)-7-(3-chlorophenyl)-3-(3,3-difluoro-1-pyrrolidinyl)spiro[chromeno[2,3-c]pyridine-5,4′-[1,3]oxazol]-2′-amine], for which the IC50 under setting [1] was found to be 0.025 µM.
The same measure, in the same setting: under `NC1=N[C@@]2(CO1)c1cc(-c3c(F)ccnc3F)ccc1Oc1cnc(Cl)cc12` [Example 399, (5S)-3-chloro-7-(2,4-difluoro-3-pyridinyl)spiro[chromeno[2,3-c]pyridine-5,4′-[1,3]oxazol]-2′-amine] stands 0.0599 µM; under `NC1=N[C@@]2(CO1)c1cc(-c3ccnc(F)c3)ccc1Oc1cnc(C3=CCOCC3)cc12` [Example 547, (5S)-3-(3,6-dihydro-2H-pyran-4-yl)-7-(2-fluoro-4-pyridinyl)spiro[chromeno[2,3-c]pyridine-5,4′-[1,3]oxazol]-2′-amine], 0.0261 µM.
With `NC1=N[C@@]2(CS1)c1cc(Br)ccc1Oc1c2cc(Cl)nc1F` [Example 597, (5S)-7-bromo-3-chloro-1-fluorospiro[chromeno[2,3-c]pyridine-5,4′-[1,3]thiazol]-2′-amine], the IC50 under setting [1] turned out to be 4.5 µM.
Turning to `NC1=N[C@]2(CO1)c1cc(C3=CCOCC3)ccc1Oc1ccc(-c3cccnc3F)cc12` [Example 136, (R)-2′-(3,6-dihydro-2H-pyran-4-yl)-7′-(2-fluoropyridin-3-yl)-5H-spiro[oxazole-4,9′-xanthen]-2-amine 2,2,2-trifluoroacetate], the IC50 (BACE 1 FRET assay (uM)) came to 0.0026 µM.
Regarding `NC1=N[C@@]2(CO1)c1cc(-c3ccccc3)ncc1Oc1c(F)cc(C3=CCOCC3)cc12` [Example 309, (5S)-7-(3,6-dihydro-2H-pyran-4-yl)-9-fluoro-3-phenylspiro[chromeno[2,3-c]pyridine-5,4′-[1,3]oxazol]-2′-amine], the IC50 under setting [1] is 0.0172 µM.
Turning to `NC1=N[C@@]2(CO1)c1cc(-c3cc(F)cnc3F)ccc1Oc1cnc(-c3ccnc(F)c3)cc12` [Example 549, (5S)-7-(2,5-difluoro-3-pyridinyl)-3-(2-fluoro-4-pyridinyl)spiro[chromeno[2,3-c]pyridine-5,4′-[1,3]oxazol]-2′-amine], under setting [1], the IC50 came to 0.029 µM.
On to `NC1=N[C@@]2(CO1)c1cc(-c3cccnc3F)ccc1Oc1cnc(N3CCOCC3)cc12` [Example 890, (5S)-7-(2-fluoro-3-pyridinyl)-3-(4-morpholinyl)spiro[chromeno[2,3-c]pyridine-5,4′-[1,3]oxazol]-2′-amine], for which the IC50 (BACE 1 FRET assay (uM)) turned out to be 0.0013 µM.
On to `NC1=N[C@@]2(CO1)c1cc(-c3cccnc3F)ccc1Oc1cnc(N3CCC(F)(F)C3)cc12` [Example 140, (S)-3-(3,3-difluoropyrrolidin-1-yl)-7-(2-fluoropyridin-3-yl)-5′H-spiro[chromeno[2,3-c]pyridine-5,4′-oxazol]-2′-amine], for which the IC50 (BACE 1 FRET assay (uM)) came to 0.0006 µM.
For the molecule `NC1=N[C@@]2(CO1)c1cc(-c3c(F)ccnc3F)ccc1Oc1cnc(-c3ccnc(F)c3)cc12` [Example 397, (5S)-7-(2,4-difluoro-3-pyridinyl)-3-(2-fluoro-4-pyridinyl)spiro[chromeno[2,3-c]pyridine-5,4′-[1,3]oxazol]-2′-amine], under setting [1], the IC50 worked out at 0.002 µM.

The record behind these values is patent US8883782B2, “Spiro-tetracyclic ring compounds as beta-secretase modulators and methods of use” (Amgen Inc., priority 2010, dated 2014).
